For orientation: pIC50 means the IC50 on a negative log10 scale, so that one unit is a factor of ten.

SMILES strings stand for the structures. pIC50: −log10 of the molar value.

In US20260035382A1, “COMPOUNDS AS SUMO ACTIVATING ENZYME INHIBITORS” (WIGEN BIOMEDICINE TECHNOLOGY (SHANGHAI) CO., LTD., priority 2022, published 2026) one finds IC50 data, which are given here for 52 compounds.

The target in the first test is SAE (Homo sapiens (Human), UniProt Q9UBT2). The test can be described thus: In vitro inhibitory activity assay against SAE (SUMO-2/3 immunofluorescence in HCT116 cells). The format is cell-based. As to conditions: 6 h incubation, class symbols, read-out: SUMO IF IC50. Summed up: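 HCT116 cells treated with compounds for 6 h at 37 °C, then fixed, permeabilized and immunostained for SUMO-2/3 with FITC secondary detection. Fluorescence compared with DMSO control to give inhibition rate and IC50.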
Sequence of SAE (Q9UBT2 whole entry): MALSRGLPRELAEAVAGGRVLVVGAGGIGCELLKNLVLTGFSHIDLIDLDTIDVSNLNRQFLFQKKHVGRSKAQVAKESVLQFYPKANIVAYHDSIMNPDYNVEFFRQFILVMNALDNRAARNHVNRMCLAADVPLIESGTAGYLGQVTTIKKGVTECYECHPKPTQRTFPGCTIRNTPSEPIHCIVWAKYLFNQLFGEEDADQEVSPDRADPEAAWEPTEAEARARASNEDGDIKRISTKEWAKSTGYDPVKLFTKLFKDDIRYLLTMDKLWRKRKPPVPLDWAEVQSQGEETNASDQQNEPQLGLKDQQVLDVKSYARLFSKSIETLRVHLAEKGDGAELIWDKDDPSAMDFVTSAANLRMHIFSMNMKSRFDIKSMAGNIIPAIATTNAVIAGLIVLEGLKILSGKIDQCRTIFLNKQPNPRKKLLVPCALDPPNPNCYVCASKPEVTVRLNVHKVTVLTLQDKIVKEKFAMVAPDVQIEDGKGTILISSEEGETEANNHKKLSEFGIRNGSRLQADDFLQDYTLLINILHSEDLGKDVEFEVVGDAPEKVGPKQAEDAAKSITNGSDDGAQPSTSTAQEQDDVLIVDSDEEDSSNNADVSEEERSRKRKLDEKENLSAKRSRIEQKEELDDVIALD
Sequence of SAE (Q9UBE0 whole entry partner): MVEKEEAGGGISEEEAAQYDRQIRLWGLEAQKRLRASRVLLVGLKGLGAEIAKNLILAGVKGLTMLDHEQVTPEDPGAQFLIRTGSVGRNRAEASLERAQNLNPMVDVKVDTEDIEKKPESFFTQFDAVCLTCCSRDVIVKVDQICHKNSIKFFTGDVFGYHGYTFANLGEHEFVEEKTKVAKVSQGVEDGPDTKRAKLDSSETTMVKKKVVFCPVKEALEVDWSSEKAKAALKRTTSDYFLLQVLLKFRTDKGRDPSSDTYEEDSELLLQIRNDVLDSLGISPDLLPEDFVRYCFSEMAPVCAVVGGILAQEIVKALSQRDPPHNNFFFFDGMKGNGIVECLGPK
As to `NS(=O)(=O)OC[C@H]1C[C@@H](Nc2ncncc2C(=O)c2cc3c(s2)CCCC32NCCc3ccc(C(F)(F)F)cc32)C[C@@H]1O` (stereo partly shown) [Compound 25], the pIC50 is 6.70 to 7.30.
As for `NS(=O)(=O)OC[C@H]1C[C@@H](Nc2ncncc2C(=O)c2cc3c(s2)CCC[C@]32NCCc3cnc(Cl)cc32)C[C@@H]1O` [Compound 135], the pIC50 was not below 7.30.
Same read-out and setting: then `CN1Cc2sc(C(=O)c3cncnc3N[C@@H]3C[C@H](COS(N)(=O)=O)[C@@H](O)C3)cc2[C@@]2(C1)OCCc1ccc(F)cc12` [Compound 257], with less than 6.70.
Same read-out and setting: as for `NS(=O)(=O)OC[C@H]1C[C@@H](Nc2ncncc2C(=O)c2cc3c(s2)COCC32NCCc3ccc(Cl)cc32)C[C@@H]1O` (stereo partly shown) [Compound 19], the figure is 6.70 to 7.30; as for `NS(=O)(=O)OC[C@H]1C[C@@H](Nc2ncncc2C(=O)c2cc3c(s2)CCC[C@@]32OCCc3ccccc32)C[C@@H]1O` [Compound 245], less than 6.70; as for `NS(=O)(=O)OC[C@H]1C[C@@H](Nc2ncncc2C(=O)c2cc3c(s2)C=C[C@@]32NCCc3ccc(F)cc32)C[C@@H]1O` [Compound 177], less than 6.70.
With `COc1ccc2c(c1)C1(CCc3sc(C(=O)c4cncnc4N[C@@H]4C[C@H](COS(N)(=O)=O)[C@@H](O)C4)cc31)NCC2` (stereo partly shown) [Compound 66], the pIC50 is less than 6.70.
For the compound `CN1CCc2ccc(Cl)cc2[C@]12CCCc1sc(C(=O)c3cncnc3N[C@@H]3C[C@H](COS(N)(=O)=O)[C@@H](O)C3)cc12` [Compound 131], the pIC50 was less than 6.70.
Same read-out and setting: then `NS(=O)(=O)OC[C@H]1C[C@@H](Nc2ncncc2C(=O)c2cc3c(s2)CCCC32NCCc3ccc(Cl)cc32)C[C@@H]1O` (stereo partly shown) [Compound 4], with not below 7.30; and `NS(=O)(=O)OC[C@H]1C[C@@H](Nc2ncncc2C(=O)c2cc3c(s2)CC[C@]32NCCc3cc(F)c(Cl)c(F)c32)C[C@@H]1O` [Compound 233], with not below 7.30.
For the compound `NS(=O)(=O)OC[C@H]1C[C@@H](Nc2ncncc2C(=O)c2cc3c(s2)CCC[C@]32NCCc3cc(Cl)c(Cl)cc32)C[C@@H]1O` [Compound 208], the negative-log IC50 (pIC50) was not below 7.30.
Turning to `NS(=O)(=O)OC[C@H]1C[C@@H](Nc2ncncc2C(=O)c2cc3c(s2)CCCC32NCCc3cc(F)c(F)cc32)C[C@@H]1O` (stereo partly shown) [Compound 26], the pIC50 is 6.70 to 7.30.
The same measure, in the same setting: then `NS(=O)(=O)OC[C@H]1C[C@@H](Nc2ncncc2C(=O)c2cc3c(s2)CCC32NCCc3ccc(F)cc32)C[C@@H]1O` (stereo partly shown) [Compound 49], with 6.70 to 7.30.
In the case of `NS(=O)(=O)OC[C@H]1C[C@@H](Nc2ncncc2C(=O)c2cc3c(s2)C(=O)C[C@@]32NCCc3ccc(Cl)cc32)C[C@@H]1O` [Compound 167], the pIC50 was less than 6.70.
Regarding `NS(=O)(=O)OC[C@H]1C[C@@H](Nc2ncncc2C(=O)c2nc3c(s2)CCC[C@]32NCCc3ccc(Cl)cc32)C[C@@H]1O` [Compound 123], the pIC50 is 6.70 to 7.30.
Same read-out and setting: as for `NS(=O)(=O)OC[C@H]1C[C@@H](Nc2ncncc2C(=O)c2cc3c(s2)C(=O)C[C@]32NCCc3ccc(Cl)cc32)C[C@@H]1O` [Compound 168], the figure is 6.70 to 7.30.
In the case of `NS(=O)(=O)OC[C@H]1C[C@@H](Nc2ncncc2C(=O)c2cc3c(s2)CC[C@]32NCCc3cc(Cl)ncc32)C[C@@H]1O` [Compound 236], the pIC50 was 6.70 to 7.30.
Same read-out and setting: then `NS(=O)(=O)OC[C@H]1C[C@@H](Nc2ncncc2C(=O)c2cc3c(s2)CC[C@]32NCC3(CC3)c3ccc(Cl)cc32)C[C@@H]1O` [Compound 240], with 6.70 to 7.30; and `Cc1cc2c(cc1Cl)C1(CCc3sc(C(=O)c4cncnc4N[C@@H]4C[C@H](COS(N)(=O)=O)[C@@H](O)C4)cc31)NCC2` (stereo partly shown) [Compound 71], with 6.70 to 7.30.
As for `NS(=O)(=O)OC[C@H]1C[C@@H](Nc2ncncc2C(=O)c2cc3c(s2)CCC32NCCc3cc(Cl)c(F)cc32)C[C@@H]1O` (stereo partly shown) [Compound 75], the pIC50 was 6.70 to 7.30.
In the case of `NS(=O)(=O)OC[C@H]1C[C@@H](Nc2ncncc2C(=O)c2cc3c(s2)COC[C@]32NCCc3c(F)cc(Cl)cc32)C[C@@H]1O` [Compound 111], the pIC50 is 6.70 to 7.30.
On to `NS(=O)(=O)OC[C@H]1C[C@@H](Nc2ncncc2C(=O)c2cc3c(s2)CC[C@]32NCCc3cc(Cl)c(F)cc32)C[C@@H]1O` [Compound 234], for which the pIC50 was not below 7.30.
The same measure, in the same setting: then `NS(=O)(=O)OC[C@H]1C[C@@H](Nc2ncncc2C(=O)c2cc3c(s2)CN(C2CC2)C[C@]32OCCc3ccc(Cl)cc32)C[C@@H]1O` [Compound 279], with not below 7.30; and `NS(=O)(=O)OC[C@H]1C[C@@H](Nc2ncncc2C(=O)c2cc3c(s2)OC[C@@]32NCCc3ccccc32)C[C@@H]1O` [Compound 56], with less than 6.70.
In the case of `CN1Cc2sc(C(=O)c3cncnc3N[C@@H]3C[C@H](COS(N)(=O)=O)[C@@H](O)C3)cc2C2(C1)OCCc1ccc(F)cc12` (stereo partly shown) [Compound 256], the pIC50 was 6.70 to 7.30.
Consider `NS(=O)(=O)OC[C@H]1C[C@@H](Nc2ncncc2C(=O)c2cc3c(s2)CSC[C@@]32NCCc3ccc(Cl)nc32)C[C@@H]1O` [Compound 146], for which the pIC50 is less than 6.70.
Take `NS(=O)(=O)OC[C@H]1C[C@@H](Nc2ncncc2C(=O)c2cc3c(s2)CCC32NCCc3cc(F)c(Cl)c(F)c32)C[C@@H]1O` (stereo partly shown) [Compound 74]: the pIC50 is 6.70 to 7.30.
Take `N#Cc1ccc2c(c1)[C@]1(CCCc3sc(C(=O)c4cncnc4N[C@@H]4C[C@H](COS(N)(=O)=O)[C@@H](O)C4)cc31)NCC2` [Compound 11]: the pIC50 is less than 6.70.
In the case of `NS(=O)(=O)OC[C@H]1C[C@@H](Nc2ncncc2C(=O)c2cc3c(s2)CCCC32NC3(CC3)Cc3ccc(Cl)cc32)C[C@@H]1O` (stereo partly shown) [Compound 40], the pIC50 was 6.70 to 7.30.
As for `NS(=O)(=O)OC[C@H]1C[C@@H](Nc2ncncc2C(=O)c2cc3c(s2)CC[C@]32NC3(CC3)Cc3ccc(Cl)cc32)C[C@@H]1O` [Compound 241], the pIC50 is 6.70 to 7.30.
Still for that read-out and setting: as for `NS(=O)(=O)OC[C@H]1C[C@@H](Nc2ncncc2C(=O)c2cc3c(s2)C=CC[C@]32NCCc3ccc(Cl)cc32)C[C@@H]1O` [Compound 216], the figure is not below 7.30; as for `NS(=O)(=O)OC[C@H]1C[C@@H](Nc2ncncc2C(=O)c2cc3c(s2)CSC[C@@]32NCCc3ncc(Cl)cc32)C[C@@H]1O` [Compound 149], less than 6.70.
As for `Cc1ccc2c(c1)C1(CCCc3sc(C(=O)c4cncnc4N[C@@H]4C[C@H](COS(N)(=O)=O)[C@@H](O)C4)cc31)NCC2` (stereo partly shown) [Compound 22], the pIC50 is 6.70 to 7.30.
With `NS(=O)(=O)OC[C@H]1C[C@@H](Nc2ncncc2C(=O)c2cc3c(s2)CCC32NCC3(CC3)c3ccc(Cl)cc32)C[C@@H]1O` (stereo partly shown) [Compound 81], the pIC50 was 6.70 to 7.30.
For `NS(=O)(=O)OC[C@H]1C[C@@H](Nc2ncncc2C(=O)c2cc3c(s2)CCC32NC3(CC3)Cc3ccc(Cl)cc32)C[C@@H]1O` (stereo partly shown) [Compound 82], the pIC50 is 6.70 to 7.30.
For the compound `NS(=O)(=O)OC[C@H]1C[C@@H](Nc2ncncc2C(=O)c2cc3c(s2)CC[C@]32OCCc3ccc(F)cc32)C[C@@H]1O` [Compound 285], the pIC50 was 6.70 to 7.30.
On to `NS(=O)(=O)OC[C@H]1C[C@@H](Nc2ncncc2C(=O)c2cc3c(s2)OCC32NCCc3ccccc32)C[C@@H]1O` (stereo partly shown) [Compound 55], for which the pIC50 was less than 6.70.
Still for that read-out and setting: then `CN1Cc2sc(C(=O)c3cncnc3N[C@@H]3C[C@H](COS(N)(=O)=O)[C@@H](O)C3)cc2C2(C1)NCCc1ccc(Cl)cc12` (stereo partly shown) [Compound 112], with not below 7.30.
On the same count and under the same terms, as for `CC(C)N1Cc2sc(C(=O)c3cncnc3N[C@@H]3C[C@H](COS(N)(=O)=O)[C@@H](O)C3)cc2C2(C1)OCCc1ccc(Cl)cc12` (stereo partly shown) [Compound 271], the figure is 6.70 to 7.30.
For `NS(=O)(=O)OC[C@H]1C[C@@H](Nc2ncncc2C(=O)c2cc3c(s2)CSC[C@@]32NCCc3ccc(F)cc32)C[C@@H]1O` [Compound 89], the pIC50 was less than 6.70.
For `NS(=O)(=O)OC[C@H]1C[C@@H](Nc2ncncc2C(=O)c2cc3c(s2)CC[C@]32NCCc3cc(F)c(F)cc32)C[C@@H]1O` [Compound 227], the pIC50 is not below 7.30.
For the compound `NS(=O)(=O)OC[C@H]1C[C@@H](Nc2ncncc2C(=O)c2nc3c(s2)CSC[C@]32NCCc3ccc(Cl)cc32)C[C@@H]1O` [Compound 129], the pIC50 is 6.70 to 7.30.
Regarding `CN1Cc2sc(C(=O)c3cncnc3N[C@@H]3C[C@H](COS(N)(=O)=O)[C@@H](O)C3)cc2[C@]2(C1)OCCc1ccccc12` [Compound 255], the pIC50 was 6.70 to 7.30.
For `N#Cc1ccc2c(c1)C1(CCCc3sc(C(=O)c4cncnc4N[C@@H]4C[C@H](COS(N)(=O)=O)[C@@H](O)C4)cc31)NCC2` (stereo partly shown) [Compound 10], the pIC50 is 6.70 to 7.30.
Consider `NS(=O)(=O)OC[C@H]1C[C@@H](Nc2ncncc2C(=O)c2cc3c(s2)CC[C@]32NCCc3ccc(C4CC4)cc32)C[C@@H]1O` [Compound 224], for which the pIC50 was 6.70 to 7.30.
In the case of `C#Cc1ccc2c(c1)[C@@]1(CCCc3sc(C(=O)c4cncnc4N[C@@H]4C[C@H](COS(N)(=O)=O)[C@@H](O)C4)cc31)NCC2` [Compound 204], the pIC50 is 6.70 to 7.30.
In the case of `NS(=O)(=O)OC[C@H]1C[C@@H](Nc2ncncc2C(=O)c2cc3c(s2)CSC[C@@]32NCCc3cnc(Cl)cc32)C[C@@H]1O` [Compound 143], the pIC50 was less than 6.70.
As for `CN1Cc2sc(C(=O)c3cncnc3N[C@@H]3C[C@H](COS(N)(=O)=O)[C@@H](O)C3)cc2C2(C1)OCCc1ccccc12` (stereo partly shown) [Compound 253], the pIC50 is 6.70 to 7.30.
As to `CC(C)N1Cc2sc(C(=O)c3cncnc3N[C@@H]3C[C@H](COS(N)(=O)=O)[C@@H](O)C3)cc2[C@@]2(C1)OCCc1ccc(Cl)cc12` [Compound 272], the pIC50 is less than 6.70.

The same test, now with this note: 6 h incubation, numeric values, read-out: SUMO IF IC50.
For `Cc1sc(C(=O)c2cncnc2N[C@@H]2C[C@H](COS(N)(=O)=O)[C@@H](O)C2)cc1[C@@H]1NCCc2ccc(Cl)cc21` [TAK-981, reference compound], the negative-log IC50 (pIC50) was 7.27.
On the same count and under the same terms, as for `[2H]C1([2H])Cc2ccc(Cl)cc2[C@]2(CCCc3sc(C(=O)c4cncnc4N[C@@H]4C[C@H](COS(N)(=O)=O)[C@@H](O)C4)cc32)N1` [Compound 197], the figure is less than 6.00.
Turning to `CN1Cc2sc(C(=O)c3cncnc3N[C@@H]3C[C@H](COS(N)(=O)=O)[C@@H](O)C3)cc2[C@@]2(C1)NCCc1ccc(Cl)cc12` [Compound 113], the pIC50 was less than 6.00.
